Experimental data reported in ChEMBL document CHEMBL4145589, “Aminoisoxazoles as Potent Inhibitors of Tryptophan 2,3-Dioxygenase 2 (TDO2)” (ACS Med Chem Lett, 2018).

How the values were obtained:
[1] = biological target: T1, Tryptophan 2,3-dioxygenase (Homo sapiens, UniProt P48775); experiment: Inhibition of TDO2 in human SW48 cells assessed as decrease in conversion of tryptophan to N-formylkynurenine after 30 mins by fluorescence assay; format: cell-based
[2] = biological target: T1, Tryptophan 2,3-dioxygenase; experiment: Inhibition of recombinant human TDO2 assessed as decrease in conversion of L-tryptophan to N-formylkynurenine preincubated for 5 mins followed by 0.2 mM substrate addition measured after 15 mins by RapidFire mass spectrometry based fluorescence assay
[3] = test system: SW48; experiment: Cytotoxicity against human SW48 cells assessed as reduction in cell viability up to 25 uM by Cell Titer-Glo based luminescence assay
[4] = test system: A 172; experiment: Cytotoxicity against human A172 cells assessed as reduction in cell viability up to 25 uM by Cell Titer-Glo based luminescence assay
[5] = Metabolic stability in rat whole blood assessed as parent compound remaining at 0.5 mM after 2 hrs by LC-MS/MS analysis; format: ADME, tissue-based; settings: read-out: Stability
[6] = Metabolic stability in dog whole blood assessed as parent compound remaining at 0.5 mM after 2 hrs by LC-MS/MS analysis; format: ADME, tissue-based, Canis lupus familiaris; settings: read-out: Stability
[7] = Metabolic stability in human whole blood assessed as parent compound remaining at 0.5 mM after 2 hrs by LC-MS/MS analysis; format: ADME, tissue-based; settings: read-out: Stability
[8] = biological target: T1, Tryptophan 2,3-dioxygenase; experiment: Competitive inhibition of recombinant human TDO2 assessed as decrease in conversion of L-tryptophan to N-formylkynurenine preincubated for 5 mins followed by 1 mM substrate addition measured after 15 mins by RapidFire mass spectrometry based fluorescence assay
[9] = biological target: Cytochrome P450 3A4 (Homo sapiens, UniProt P08684); experiment: Inhibition of CYP3A4 (unknown origin); format: ADME
Sequence of Cytochrome P450 3A4 (P08684 whole entry): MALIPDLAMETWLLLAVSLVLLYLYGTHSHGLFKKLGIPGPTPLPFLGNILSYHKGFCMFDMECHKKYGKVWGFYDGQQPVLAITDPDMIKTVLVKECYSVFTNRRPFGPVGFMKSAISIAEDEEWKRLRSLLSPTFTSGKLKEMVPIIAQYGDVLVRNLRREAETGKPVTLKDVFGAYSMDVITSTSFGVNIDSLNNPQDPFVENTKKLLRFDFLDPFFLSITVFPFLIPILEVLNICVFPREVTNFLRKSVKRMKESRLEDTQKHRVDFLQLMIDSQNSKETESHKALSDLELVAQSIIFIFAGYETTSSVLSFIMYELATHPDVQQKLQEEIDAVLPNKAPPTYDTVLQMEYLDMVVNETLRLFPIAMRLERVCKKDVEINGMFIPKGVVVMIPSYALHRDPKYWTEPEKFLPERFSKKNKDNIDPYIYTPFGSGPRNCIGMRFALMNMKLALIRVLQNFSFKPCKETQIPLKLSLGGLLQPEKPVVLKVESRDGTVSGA

[10] = biological target: T2, Cytochrome P450 1A2 (Homo sapiens, UniProt P05177); experiment: Inhibition of CYP1A2 (unknown origin); format: ADME
T2 sequence (P05177 whole entry): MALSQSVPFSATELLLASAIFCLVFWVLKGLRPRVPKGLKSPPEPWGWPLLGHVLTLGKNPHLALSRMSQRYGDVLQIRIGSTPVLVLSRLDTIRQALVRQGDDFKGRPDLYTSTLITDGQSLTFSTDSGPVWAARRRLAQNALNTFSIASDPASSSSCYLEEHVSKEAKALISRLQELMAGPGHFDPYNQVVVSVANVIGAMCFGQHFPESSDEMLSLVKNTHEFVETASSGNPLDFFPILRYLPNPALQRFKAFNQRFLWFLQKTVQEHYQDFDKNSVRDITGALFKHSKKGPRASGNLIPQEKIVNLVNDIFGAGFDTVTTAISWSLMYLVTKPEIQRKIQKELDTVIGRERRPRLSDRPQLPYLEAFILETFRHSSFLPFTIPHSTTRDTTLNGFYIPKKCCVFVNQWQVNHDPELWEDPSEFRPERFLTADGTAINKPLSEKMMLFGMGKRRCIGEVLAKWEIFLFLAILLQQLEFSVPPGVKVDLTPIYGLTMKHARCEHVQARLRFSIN

[11] = biological target: Cytochrome P450 2D6 (Homo sapiens, UniProt P10635); experiment: Inhibition of CYP2D6 (unknown origin); format: ADME
Sequence of Cytochrome P450 2D6 (P10635 whole entry): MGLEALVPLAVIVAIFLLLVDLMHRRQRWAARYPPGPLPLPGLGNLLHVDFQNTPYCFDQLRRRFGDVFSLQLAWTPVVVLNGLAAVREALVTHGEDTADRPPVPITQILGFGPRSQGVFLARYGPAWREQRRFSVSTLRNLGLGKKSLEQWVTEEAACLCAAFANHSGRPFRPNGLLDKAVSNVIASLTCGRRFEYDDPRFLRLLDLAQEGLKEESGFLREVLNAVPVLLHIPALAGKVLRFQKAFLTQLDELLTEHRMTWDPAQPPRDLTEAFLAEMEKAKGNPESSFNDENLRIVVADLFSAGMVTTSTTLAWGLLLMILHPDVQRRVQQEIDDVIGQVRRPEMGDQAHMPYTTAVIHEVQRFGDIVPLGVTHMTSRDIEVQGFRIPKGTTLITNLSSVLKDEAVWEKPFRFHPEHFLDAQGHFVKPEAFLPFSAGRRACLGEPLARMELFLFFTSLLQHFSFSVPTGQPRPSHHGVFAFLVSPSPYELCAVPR

[12] = biological target: Cytochrome P450 2C9 (Homo sapiens, UniProt P11712); experiment: Inhibition of CYP2C9 (unknown origin); format: ADME
Sequence of Cytochrome P450 2C9 (P11712 whole entry): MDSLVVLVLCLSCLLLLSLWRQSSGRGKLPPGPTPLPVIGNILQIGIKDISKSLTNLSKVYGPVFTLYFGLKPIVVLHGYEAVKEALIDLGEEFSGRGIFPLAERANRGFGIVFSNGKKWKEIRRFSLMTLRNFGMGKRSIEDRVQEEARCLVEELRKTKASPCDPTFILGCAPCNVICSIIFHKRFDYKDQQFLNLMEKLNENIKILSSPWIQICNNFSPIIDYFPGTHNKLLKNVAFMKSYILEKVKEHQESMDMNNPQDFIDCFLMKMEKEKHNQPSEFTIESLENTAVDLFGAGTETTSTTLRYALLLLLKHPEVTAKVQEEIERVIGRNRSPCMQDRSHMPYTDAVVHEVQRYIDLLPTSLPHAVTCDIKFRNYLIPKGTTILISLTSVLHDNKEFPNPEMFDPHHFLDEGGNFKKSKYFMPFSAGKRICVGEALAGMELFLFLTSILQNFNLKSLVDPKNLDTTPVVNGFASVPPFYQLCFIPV

[13] = biological target: Cytochrome P450 2C19 (Homo sapiens, UniProt P33261); experiment: Inhibition of CYP2C19 (unknown origin); format: ADME
Sequence of Cytochrome P450 2C19 (P33261 whole entry): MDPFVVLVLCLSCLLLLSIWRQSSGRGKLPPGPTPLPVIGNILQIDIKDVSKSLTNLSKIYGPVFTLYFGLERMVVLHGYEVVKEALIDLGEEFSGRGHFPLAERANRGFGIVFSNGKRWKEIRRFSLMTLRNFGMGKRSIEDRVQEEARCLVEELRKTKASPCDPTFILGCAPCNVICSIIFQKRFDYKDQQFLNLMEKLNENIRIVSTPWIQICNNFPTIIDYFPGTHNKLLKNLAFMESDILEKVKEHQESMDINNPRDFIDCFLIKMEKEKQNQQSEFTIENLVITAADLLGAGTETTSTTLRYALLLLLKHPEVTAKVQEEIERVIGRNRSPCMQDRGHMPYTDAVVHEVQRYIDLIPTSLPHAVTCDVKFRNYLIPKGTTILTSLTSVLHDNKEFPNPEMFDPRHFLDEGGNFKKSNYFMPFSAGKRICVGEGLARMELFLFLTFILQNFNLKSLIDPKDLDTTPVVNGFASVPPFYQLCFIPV

[14] = Metabolic stability in rat whole blood assessed as parent compound remaining at 0.5 mM after 30 mins by LC-MS/MS analysis; format: ADME, tissue-based; settings: read-out: Stability
[15] = Metabolic stability in dog whole blood assessed as parent compound remaining at 0.5 mM after 30 mins by LC-MS/MS analysis; format: ADME, tissue-based, Canis lupus familiaris; settings: read-out: Stability

T1 sequence (P48775 whole entry): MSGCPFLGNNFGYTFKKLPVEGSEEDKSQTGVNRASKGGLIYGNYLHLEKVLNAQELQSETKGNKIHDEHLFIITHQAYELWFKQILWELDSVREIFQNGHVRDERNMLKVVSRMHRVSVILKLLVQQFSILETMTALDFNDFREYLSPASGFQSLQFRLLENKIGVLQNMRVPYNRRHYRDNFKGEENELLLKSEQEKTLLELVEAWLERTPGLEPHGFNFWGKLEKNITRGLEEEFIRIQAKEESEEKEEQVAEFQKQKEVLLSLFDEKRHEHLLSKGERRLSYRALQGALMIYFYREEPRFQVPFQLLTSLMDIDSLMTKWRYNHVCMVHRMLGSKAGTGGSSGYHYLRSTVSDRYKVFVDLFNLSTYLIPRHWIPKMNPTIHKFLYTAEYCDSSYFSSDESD

Compound	EC50 [1] [nM]	IC50 [2] [nM]	Activity [3]	Activity [4]	other results
Nc1[nH]ncc1-c1ccccc1	> 25000	> 25000	Non-Toxic	Non-Toxic	–
Cc1noc(N)c1-c1ccccc1	9700	–	Non-Toxic	Non-Toxic	remaining at 2 h, 500 µM [5]: 50%; remaining at 2 h, 500 µM [6]: 65%; remaining at 2 h, 500 µM [7]: 84%
Nc1cnsc1-c1ccccc1	> 25000	> 25000	Non-Toxic	Non-Toxic	–
Nc1oncc1-c1ccc(Cl)cc1	950	830	Non-Toxic	Non-Toxic	IC50 [8]: 4210 nM
NC(=O)c1oncc1-c1ccccc1	> 25000	> 25000	Non-Toxic	Non-Toxic	–
Nc1cnoc1-c1ccccc1	> 25000	> 25000	Non-Toxic	Non-Toxic	–
COc1cccc(-c2cnoc2N)c1	1500	3100	Non-Toxic	Non-Toxic	–
CNc1oncc1-c1ccccc1	670	190	Non-Toxic	Non-Toxic	remaining at 2 h, 500 µM [5]: 0.1%; remaining at 2 h, 500 µM [6]: 0.1%; remaining at 2 h, 500 µM [7]: 0.3%
Nc1snnc1-c1ccccc1	> 25000	> 25000	Non-Toxic	Non-Toxic	–
OCc1oncc1-c1ccccc1	18000	4400	Non-Toxic	Non-Toxic	–
Nc1oncc1-c1ccccn1	820	1700	Non-Toxic	Non-Toxic	–
Nc1oncc1-c1ccccc1	85	140	Non-Toxic	Non-Toxic	IC50 [9]: > 10000 nM; IC50 [10]: > 10000 nM; IC50 [11]: > 10000 nM; IC50 [12]: > 10000 nM; IC50 [13]: > 10000 nM; remaining at 2 h, 500 µM [5]: 0%; remaining at 2 h, 500 µM [6]: 0%; remaining at 2 h, 500 µM [7]: 0%
Nc1cnnn1-c1ccccc1	> 25000	> 25000	Non-Toxic	Non-Toxic	–
CNC(=O)c1oncc1-c1ccccc1	> 25000	> 25000	Non-Toxic	Non-Toxic	–
Nc1nncn1-c1ccccc1	> 25000	> 25000	Non-Toxic	Non-Toxic	–
Cn1ncc(-c2ccccc2)c1N	> 25000	> 25000	Non-Toxic	Non-Toxic	–
Nc1oncc1-c1cccc(Cl)c1	250	500	Non-Toxic	Non-Toxic	IC50 [8]: 2940 nM
Nc1oncc1-c1ccc(F)cc1	210	580	Non-Toxic	Non-Toxic	–
Nc1sncc1-c1ccccc1	> 25000	18000	Non-Toxic	Non-Toxic	–
c1ccc(-c2cnoc2)cc1	> 25000	> 25000	Non-Toxic	Non-Toxic	–
Nc1nnsc1-c1ccccc1	> 25000	270	Non-Toxic	Non-Toxic	–

Second part, led by results:

EC50 [1] [nM]	IC50 [2] [nM]	Compound	Activity [3]	Activity [4]	other results
1500	7800	Nc1oncc1C1CCCCC1	Non-Toxic	Non-Toxic	–
810	29	Nc1oncc1-c1cccs1	Non-Toxic	Non-Toxic	–
77	340	Nc1oncc1-n1cc(F)cn1	Non-Toxic	Non-Toxic	IC50 [9]: > 10000 nM; IC50 [10]: > 10000 nM; IC50 [11]: > 10000 nM; IC50 [12]: > 10000 nM; IC50 [13]: > 10000 nM; remaining at 2 h, 500 µM [7]: 91%
360	640	Nc1oncc1C1CCCC1	Non-Toxic	Non-Toxic	–
230	290	Nc1oncc1-n1cccn1	Non-Toxic	Non-Toxic	IC50 [9]: > 10000 nM; IC50 [10]: > 10000 nM; IC50 [11]: > 10000 nM; IC50 [12]: > 10000 nM; IC50 [13]: > 10000 nM
99	28	Nc1oncc1-c1ccsc1	Non-Toxic	Non-Toxic	IC50 [9]: > 10000 nM; IC50 [10]: > 10000 nM; IC50 [11]: > 10000 nM; IC50 [12]: > 10000 nM; IC50 [13]: > 10000 nM; remaining at 0.5 h, 500 µM [14]: 3%; remaining at 0.5 h, 500 µM [15]: 3%
810	1600	Cc1ccn(-c2cnoc2N)n1	Non-Toxic	Non-Toxic	–
1400	2300	Nc1oncc1-c1cccnc1	Non-Toxic	Non-Toxic	–
340	1600	Cc1cnn(-c2cnoc2N)c1	Non-Toxic	Non-Toxic	–
